pIC50: −log10 of the molar value.
These molecules were tested on T47D pAKT (S473), PI3Kα H1047R mutation present (assay: HTRF pAKT-T47D). Settings: Homo sapiens, T47D, 1 h, read-out: T47D pAKT IC50 (nM), T47D.1 cells, pAKT (S473) HTRF, 1 hour.
`Cc1c([C@@H](NC(=O)Nc2cnc(N3CCNC3=O)nc2)C(C)C)oc2ccc(F)cc12` [Compound 161, 3-[(1S)-1-(5-fluoro-3-methyl-1-benzofuran-2-yl)-2-methylpropyl]-1-[2-(2-oxoimidazolidin-1-yl)pyrimidin-5-yl]urea] showed an IC50 of under 1000 nM. Work on `Cc1c([C@@H](NC(=O)Nc2cccc(N3CCC3=O)c2)C(C)C)oc2ccc(F)cc12` [Compound 105] yielded an IC50 of 1000 to 5000 nM. `Cc1c([C@@H](NC(=O)Nc2cnc(NCC(C)(C)O)nc2)C(C)C)oc2ccc(F)cc12` [Compound 142] was tested, and the IC50 was under 1000 nM. `COC1CN(c2ncc(NC(=O)N[C@H](c3oc4ccc(F)cc4c3C)C(C)C)cn2)C1` [Compound 138] showed an IC50 of under 1000 nM. Work on `Cc1c([C@@H](NC(=O)Nc2cnc(N3C[C@@H](O)[C@@H]3C)nc2)C(F)(F)F)oc2ccc(F)cc12` [Compound 170] yielded an IC50 of under 1000 nM. `Cc1c([C@@H](NC(=O)Nc2cnc(N)nc2)C2(F)CC2)oc2ccc(F)cc12` [Compound 81, (R)-1-(2-aminopyrimidin-5-yl)-3-((5-fluoro-3-methylbenzofuran-2-yl)(1-fluorocyclopropyl)methyl)urea] showed an IC50 of under 1000 nM. Molecule `Cc1c(C(NC(=O)Nc2cnc(N3CCC(O)CC3)nc2)C(F)(F)F)oc2c(F)cc(F)cc12` (single isomer, unassigned) [Compound 191] has an IC50 of 1000 to 5000 nM. Work on `Cc1c([C@@H](NC(=O)Nc2cnc(N3CC(C(N)=O)C3)nc2)C(F)(F)F)oc2c(F)cc(F)cc12` [Compound 211] yielded an IC50 of under 1000 nM. Work on `Cc1c([C@@H](NC(=O)Nc2cnc(N3CC(O)C3)nc2)C(C)C)oc2ccc(F)cc12` [Compound 87, (S)-1-(1-(5-fluoro-3-methylbenzofuran-2-yl)-2-methylpropyl)-3-(2-(3-hydroxyazetidin-1-yl)pyrimidin-5-yl)urea] yielded an IC50 of under 1000 nM. For `Cc1c([C@H](C)NC(=O)Nc2cnc(N)nc2)oc2ccc(F)cc12` [Compound 101, (S)-1-(2-aminopyrimidin-5-yl)-3-(1-(5-fluoro-3-methylbenzofuran-2-yl)ethyl)urea], the IC50 was 1000 to 5000 nM. `Cc1c(C(NC(=O)Nc2cnc(N3CCC3)nc2)C(F)(F)F)oc2c(F)cc(F)cc12` (single isomer, unassigned) [Compound 223, 1-(2-(azetidin-1-yl)pyrimidin-5-yl)-3-(1-(5,7-difluoro-3-methylbenzofuran-2-yl)-2,2,2-trifluoroethyl)urea] gave an IC50 of under 1000 nM. In the case of `Cc1c([C@@H](NC(=O)Nc2cnc(N3CC(O)C3)nc2)C(F)(F)F)oc2ccc(F)cc12` [Compound 89, (R)-1-(2-(3-hydroxyazetidin-1-yl)pyrimidin-5-yl)-3-(2,2,2-trifluoro-1-(5-fluoro-3-methylbenzofuran-2-yl)ethyl)urea], the IC50 was under 1000 nM. In the case of `CNC(=O)c1cc(NC(=O)N[C@H](c2oc3ccc(F)cc3c2C)C(C)C)ccc1OC` [Compound 104], the IC50 was under 1000 nM. `Cc1c([C@@H](NC(=O)Nc2ccc3[nH]ncc3c2)C(F)(F)F)oc2c(F)cc(F)cc12` [Compound 194, 3-[(1R)-1-(5,7-difluoro-3-methyl-1-benzofuran-2-yl)-2,2,2-trifluoroethyl]-1-(1H-indazol-5-yl)urea] showed an IC50 of under 1000 nM. For `Cc1c([C@@H](NC(=O)Nc2cnc(OCC3(O)CC3)nc2)C(C)C)oc2ccc(F)cc12` [Compound 152], the IC50 was under 1000 nM. Work on `Cc1c([C@@H](NC(=O)Nc2cnc(N3C[C@H](O)[C@H]3C)nc2)C(F)(F)F)oc2ccc(F)cc12` [Compound 169] yielded an IC50 of under 1000 nM. In the case of `Cc1c([C@@H](NC(=O)Nc2cnc(N3C[C@@H](O)[C@@H]3C)nc2)C(C)C)oc2ccc(F)cc12` (relative stereo) [Compound 148, 3-[(1S)-1-(5-fluoro-3-methyl-1-benzofuran-2-yl)-2-methylpropyl]-1-{2-[(2R*,3R**)-3-hydroxy-2-methylazetidin-1-yl]pyrimidin-5-yl}urea], the IC50 was under 1000 nM. For `Cc1c([C@H](NC(=O)Nc2cnc(N3CC(C(N)=O)C3)nc2)C(F)(F)F)oc2c(F)cc(F)cc12` [Compound 212], the IC50 was over 5000 nM. `COc1ncc(NC(=O)N[C@H](c2oc3ccc(F)cc3c2C)C(C)C)cn1` [Compound 150, (S)-1-(1-(5-fluoro-3-methylbenzofuran-2-yl)-2-methylpropyl)-3-(2-methoxypyrimidin-5-yl)urea] showed an IC50 of under 1000 nM. With `Cc1c([C@@H](NC(=O)Nc2cnc(N3CC[C@H](O)C3)nc2)C(F)(F)F)oc2c(F)cc(F)cc12` [Compound 209] the IC50 was under 1000 nM. With `Cc1c([C@@H](NC(=O)Nc2cnc(N3CCC(O)CC3)nc2)C(C)C)oc2ccc(F)cc12` [Compound 140] the IC50 was under 1000 nM. `Cc1c([C@@H](NC(=O)Nc2cnc(N3CC4(CNC(=O)CO4)C3)nc2)C(C)C)oc2ccc(F)cc12` [Compound 166, 3-[(1S)-1-(5-fluoro-3-methyl-1-benzofuran-2-yl)-2-methylpropyl]-1-(2-{7-oxo-5-oxa-2,8-diazaspiro[3.5]nonan-2-yl}pyrimidin-5-yl)urea] showed an IC50 of under 1000 nM. Molecule `Cc1c(C(NC(=O)Nc2cnc(N)nc2)C(F)(F)F)oc2c(C#N)cc(F)cc12` (single isomer, unassigned) [Compound 219, 1-(2-aminopyrimidin-5-yl)-3-[1-(7-cyano-5-fluoro-3-methyl-1-benzofuran-2-yl)-2,2,2-trifluoroethyl]urea] has an IC50 of 1000 to 5000 nM. `Cc1c([C@@H](NC(=O)Nc2cnc(N3CC(O)C3)nc2)C(F)(F)F)oc2c(F)cc(F)cc12` (single isomer, unassigned) [Compound 91] showed an IC50 of under 1000 nM. In the case of `COC(=O)Nc1ncc(NC(=O)N[C@H](c2oc3ccc(F)cc3c2C)C(C)C)cn1` [Compound 162, methyl N-[5-({[(1S)-1-(5-fluoro-3-methyl-1-benzofuran-2-yl)-2-methylpropyl]carbamoyl}amino)pyrimidin-2-yl]carbamate], the IC50 was under 1000 nM.

Same assay, conditions: read-out: T47D pAKT IC50; T47D.1 cells, pAKT (S473) HTRF, 1 hour
Molecule `Cc1c(C(NC(=O)Nc2cnc(N3CC4(COC4)C3)nc2)C(F)(F)F)oc2c(F)cc(F)cc12` (racemic) [Compound 171, 1-(2-(2-oxa-6-azaspiro[3.3]heptan-6-yl)pyrimidin-5-yl)-3-(1-(5,7-difluoro-3-methylbenzofuran-2-yl)-2,2,2-trifluoroethyl)urea] has a pIC50 of under 5.30. For `Cc1c(C(NC(=O)Nc2cnc(N[C@@H](C)CO)nc2)C(F)(F)F)oc2c(F)cc(F)cc12` (single isomer, unassigned) [Compound 195], the pIC50 was under 5.30. Work on `Cc1c(C(NC(=O)Nc2cnc(N3CC(F)C3)nc2)C(F)(F)F)oc2c(F)cc(F)cc12` (single isomer, unassigned) [Compound 226, 1-(1-(5,7-difluoro-3-methylbenzofuran-2-yl)-2,2,2-trifluoroethyl)-3-(2-(3-fluoroazetidin-1-yl)pyrimidin-5-yl)urea] yielded a pIC50 of over 6.00. `Cc1c(C(NC(=O)Nc2cnc(N3CC(O)C3)nc2)C(F)(F)F)oc2c(F)cc(Cl)cc12` (racemic) [Compound 158, 3-[1-(5-chloro-7-fluoro-3-methyl-1-benzofuran-2-yl)-2,2,2-trifluoroethyl]-1-[2-(3-hydroxyazetidin-1-yl)pyrimidin-5-yl]urea] gave a pIC50 of under 5.30. Molecule `Cc1c(C(NC(=O)Nc2cnc(N3CCC(O)CC3)nc2)C(F)(F)F)oc2c(F)cc(F)cc12` (single isomer, unassigned) [Compound 192] has a pIC50 of over 6.00. `Cc1c(C(NC(=O)Nc2cnc(N)nc2)C(F)(F)F)oc2c(C)cc(F)cc12` (single isomer, unassigned) [Compound 214, 1-(2-aminopyrimidin-5-yl)-3-[2,2,2-trifluoro-1-(5-fluoro-3,7-dimethyl-1-benzofuran-2-yl)ethyl]urea] was tested, and the pIC50 was over 6.00. `Cc1c(C(NC(=O)Nc2cnc(N)nc2)C(F)(F)F)oc2c(F)cc(Cl)cc12` (racemic) [Compound 155, 1-(2-aminopyrimidin-5-yl)-3-[1-(5-chloro-7-fluoro-3-methyl-1-benzofuran-2-yl)-2,2,2-trifluoroethyl]urea] gave a pIC50 of under 5.30. `Cc1c(C(NC(=O)Nc2cnc(N3CC(C)(O)C3)nc2)C(F)(F)F)oc2c(Cl)cc(F)cc12` (single isomer, unassigned) [Compound 201, 1-(1-(7-chloro-5-fluoro-3-methylbenzofuran-2-yl)-2,2,2-trifluoroethyl)-3-(2-(3-hydroxy-3-methylazetidin-1-yl)pyrimidin-5-yl)urea] gave a pIC50 of under 5.30. `Cc1c(C(NC(=O)Nc2cnc(N)nc2)C(F)(F)F)oc2c(F)cc(Cl)cc12` (racemic) [Compound 156, 1-(2-aminopyrimidin-5-yl)-3-[1-(5-chloro-7-fluoro-3-methyl-1-benzofuran-2-yl)-2,2,2-trifluoroethyl]urea] showed a pIC50 of over 6.00. Work on `Cc1c(C(NC(=O)Nc2cnc(N3CC(O)C3)nc2)C(F)(F)F)oc2c(Cl)cc(F)cc12` (single isomer, unassigned) [Compound 200, 3-[1-(7-chloro-5-fluoro-3-methyl-1-benzofuran-2-yl)-2,2,2-trifluoroethyl]-1-[2-(3-hydroxyazetidin-1-yl)pyrimidin-5-yl] urea] yielded a pIC50 of over 6.00. `Cc1c(C(NC(=O)Nc2cnc(N3CC(C)(O)C3)nc2)C(F)(F)F)oc2c(Cl)cc(F)cc12` (single isomer, unassigned) [Compound 202, 1-(1-(7-chloro-5-fluoro-3-methylbenzofuran-2-yl)-2,2,2-trifluoroethyl)-3-(2-(3-hydroxy-3-methylazetidin-1-yl)pyrimidin-5-yl)urea] was tested, and the pIC50 was over 6.00. `Cc1c(C(NC(=O)Nc2cnc(N3CC(C(=O)O)C3)nc2)C(F)(F)F)oc2c(F)cc(F)cc12` (single isomer, unassigned) [Compound 197, 1-[5-({[1-(5,7-difluoro-3-methyl-1-benzofuran-2-yl)-2,2,2-trifluoroethyl]carbamoyl}amino)pyrimidin-2-yl]azetidine-3-carboxylic acid] was tested, and the pIC50 was over 6.00. Molecule `Cc1c(C(NC(=O)Nc2cnc(N3C[C@@H](O)[C@@H]3C)nc2)C(F)(F)F)oc2c(F)cc(F)cc12` (stereo partly drawn) [Compound 176] has a pIC50 of under 5.30. With `Cc1c(C(NC(=O)Nc2cnc(N)nc2)C(F)(F)F)oc2c(C3CC3)cc(F)cc12` (single isomer, unassigned) [Compound 217, 1-(2-aminopyrimidin-5-yl)-3-[1-(7-cyclopropyl-5-fluoro-3-methyl-1-benzofuran-2-yl)-2,2,2-trifluoroethyl]urea] the pIC50 was under 5.30.
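Also: assay medium was RPMI with 10% FBS and 0.2 units/ml bovine insulin, without phenol red.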
